From PubChem BioAssay AID2060607 (Molecular Pharmacology Branch, DTP, NCI, 2025)

Test system: 876862-298-R-J1-PDC complex spheroids, viability % test/control
Experiment: Anticancer human tumor 876862-298-R-J1-PDC patient-derived endometrial carcinoma cell line growth inhibition [CLK]
Settings: for IC50: curve of first compound; for viability, T/C: stronger effect = lower value; active = viability on the fitted dose curve at most 10% of control; inactive = the rest
How it was run: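 Multi-cell-type spheroids combined patient-derived tumor cells with HUVEC endothelial cells and human mesenchymal stem cells. Paired agents were dosed in half-log steps down from about clinical Cmax, or from 10 microM where Cmax was unknown.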

[1] = second compound 0.0316 µM, first compound 0.0316 µM
[2] = second compound 0.0316 µM, first compound 0.1 µM
[3] = second compound 0.1 µM, first compound 0.0316 µM
[4] = second compound 0.1 µM, first compound 0.1 µM
[5] = second compound 0.316 µM, first compound 0.0316 µM
[6] = second compound 0.316 µM, first compound 0.1 µM
[7] = second compound 1 µM, first compound 0.0316 µM
[8] = second compound 1 µM, first compound 0.1 µM
[9] = second compound 3.16 µM, first compound 0.0316 µM
[10] = second compound 3.16 µM, first compound 0.1 µM
[11] = second compound 10 µM, first compound 0.0316 µM
[12] = second compound 10 µM, first compound 0.1 µM
[13] = second compound 0.0316 µM, first compound 0.316 µM
[14] = second compound 0.0316 µM, first compound 1 µM
[15] = second compound 0.0316 µM, first compound 3.16 µM
[16] = second compound 0.0316 µM, first compound 10 µM
[17] = second compound 0.1 µM, first compound 0.316 µM
[18] = second compound 0.1 µM, first compound 1 µM
[19] = second compound 0.1 µM, first compound 3.16 µM
[20] = second compound 0.1 µM, first compound 10 µM
[21] = second compound 0.316 µM, first compound 0.316 µM
[22] = second compound 0.316 µM, first compound 1 µM
[23] = second compound 0.316 µM, first compound 3.16 µM
[24] = second compound 0.316 µM, first compound 10 µM
[25] = second compound 1 µM, first compound 0.316 µM
[26] = second compound 1 µM, first compound 1 µM
[27] = second compound 1 µM, first compound 3.16 µM
[28] = second compound 1 µM, first compound 10 µM
[29] = second compound 3.16 µM, first compound 0.316 µM
[30] = second compound 3.16 µM, first compound 1 µM
[31] = second compound 3.16 µM, first compound 3.16 µM
[32] = second compound 3.16 µM, first compound 10 µM
[33] = second compound 10 µM, first compound 0.316 µM
[34] = second compound 10 µM, first compound 1 µM
[35] = second compound 10 µM, first compound 3.16 µM
[36] = second compound 10 µM, first compound 10 µM
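Note: spheroids exposed to drugs for 7 days before readout.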
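Throughout, for viability, T/C: 100% = DMSO vehicle control wells.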

Cn1ncnc1[C@H]1c2n[nH]c(=O)c3cc(F)cc(c23)N[C@@H]1c1ccc(F)cc1 + CNC(=O)c1ccc(Nc2nc(OC3CCCC3)c3c(-c4ccc5nc(C)oc5c4)c[nH]c3n2)c(OC)c1
inactive: viability, T/C (second compound 0.0316 µM, first compound 0.000316 µM) 67.3% | viability, T/C (second compound 0.0316 µM, first compound 0.001 µM) 84.6% | viability, T/C (second compound 0.0316 µM, first compound 0.00316 µM) 73.4% | viability, T/C (second compound 0.0316 µM, first compound 0.01 µM) 79.9% | viability, T/C [1] 89.7% | viability, T/C [2] 77.5% | viability, T/C (second compound 0.1 µM, first compound 0.000316 µM) 42.2% | viability, T/C (second compound 0.1 µM, first compound 0.001 µM) 45.4% | viability, T/C (second compound 0.1 µM, first compound 0.00316 µM) 46.7% | viability, T/C (second compound 0.1 µM, first compound 0.01 µM) 46.5% | viability, T/C [3] 53% | viability, T/C [4] 45.6% | viability, T/C (second compound 0.316 µM, first compound 0.000316 µM) 40.9% | viability, T/C (second compound 0.316 µM, first compound 0.001 µM) 44.5% | viability, T/C (second compound 0.316 µM, first compound 0.00316 µM) 46% | viability, T/C (second compound 0.316 µM, first compound 0.01 µM) 43.3% | viability, T/C [5] 44.1% | viability, T/C [6] 36.7% | viability, T/C (second compound 1 µM, first compound 0.000316 µM) 31.3% | viability, T/C (second compound 1 µM, first compound 0.001 µM) 32.9% | viability, T/C (second compound 1 µM, first compound 0.00316 µM) 30% | viability, T/C (second compound 1 µM, first compound 0.01 µM) 28.5% | viability, T/C [7] 26.8% | viability, T/C [8] 27.9% | viability, T/C (second compound 3.16 µM, first compound 0.000316 µM) 22.8% | viability, T/C (second compound 3.16 µM, first compound 0.001 µM) 23.2% | viability, T/C (second compound 3.16 µM, first compound 0.00316 µM) 19.6% | viability, T/C (second compound 3.16 µM, first compound 0.01 µM) 21.5% | viability, T/C [9] 21.7% | viability, T/C [10] 18.5% | viability, T/C (second compound 10 µM, first compound 0.000316 µM) 21.1% | viability, T/C (second compound 10 µM, first compound 0.001 µM) 22.4% | viability, T/C (second compound 10 µM, first compound 0.00316 µM) 20% | viability, T/C (second compound 10 µM, first compound 0.01 µM) 23.3% | viability, T/C [11] 17.5% | viability, T/C [12] 16.2%
< 0.316 nM: IC50 (second compound 0.1 µM) | IC50 (second compound 0.316 µM) | IC50 (second compound 1 µM) | IC50 (second compound 3.16 µM) | IC50 (second compound 10 µM)
> 100 nM: IC50 (second compound 0.0316 µM)

Nc1ccn(C2OC(CO)C(O)C2(F)F)c(=O)n1 (stereo unspecified) + CNC(=O)c1ccc(Nc2nc(OC3CCCC3)c3c(-c4ccc5nc(C)oc5c4)c[nH]c3n2)c(OC)c1
< 31.6 nM: IC50 (second compound 0.0316 µM) | IC50 (second compound 0.1 µM) | IC50 (second compound 0.316 µM) | IC50 (second compound 1 µM) | IC50 (second compound 3.16 µM) | IC50 (second compound 10 µM)
inactive: viability, T/C [1] 15.1% | viability, T/C [3] 16.5% | viability, T/C [5] 17.7% | viability, T/C [7] 14.6% | viability, T/C [9] 10.5%
active: viability, T/C [2] 7.66% | viability, T/C [13] 9.02% | viability, T/C [14] 6.2% | viability, T/C [15] 7.72% | viability, T/C [16] 9.97% | viability, T/C [4] 9.17% | viability, T/C [17] 9.31% | viability, T/C [18] 7.24% | viability, T/C [19] 7.42% | viability, T/C [20] 10.1% | viability, T/C [6] 7.67% | viability, T/C [21] 7.58% | viability, T/C [22] 5.78% | viability, T/C [23] 7.22% | viability, T/C [24] 6.26% | viability, T/C [8] 8.47% | viability, T/C [25] 6.7% | viability, T/C [26] 6.04% | viability, T/C [27] 6.8% | viability, T/C [28] 5.73% | viability, T/C [10] 5.98% | viability, T/C [29] 5.8% | viability, T/C [30] 6.15% | viability, T/C [31] 4.91% | viability, T/C [32] 5.13% | viability, T/C [11] 8.61% | viability, T/C [12] 5.73% | viability, T/C [33] 5.74% | viability, T/C [34] 5.44% | viability, T/C [35] 6.11% | viability, T/C [36] 3.96%

O=c1[nH]cc(F)c(=O)[nH]1 + CNC(=O)c1ccc(Nc2nc(OC3CCCC3)c3c(-c4ccc5nc(C)oc5c4)c[nH]c3n2)c(OC)c1
< 31.6 nM: IC50 (second compound 0.1 µM) | IC50 (second compound 0.316 µM) | IC50 (second compound 1 µM) | IC50 (second compound 3.16 µM) | IC50 (second compound 10 µM)
> 10000 nM: IC50 (second compound 0.0316 µM)
inactive: viability, T/C [1] 68.7% | viability, T/C [2] 84.1% | viability, T/C [13] 81.4% | viability, T/C [14] 94.6% | viability, T/C [15] 57.9% | viability, T/C [16] 49.6% | viability, T/C [3] 46.7% | viability, T/C [4] 49.5% | viability, T/C [17] 49.2% | viability, T/C [18] 45% | viability, T/C [19] 45.3% | viability, T/C [20] 41.6% | viability, T/C [5] 49.7% | viability, T/C [6] 42% | viability, T/C [21] 41.9% | viability, T/C [22] 40.5% | viability, T/C [23] 40.1% | viability, T/C [24] 38.5% | viability, T/C [7] 31.5% | viability, T/C [8] 32.2% | viability, T/C [25] 32.5% | viability, T/C [26] 31.1% | viability, T/C [27] 24% | viability, T/C [28] 24.7% | viability, T/C [9] 25% | viability, T/C [10] 25.9% | viability, T/C [29] 22.9% | viability, T/C [30] 19.9% | viability, T/C [31] 18% | viability, T/C [32] 14.2% | viability, T/C [11] 20.3% | viability, T/C [12] 21.2% | viability, T/C [33] 20.1% | viability, T/C [34] 21.6% | viability, T/C [35] 17.6% | viability, T/C [36] 13.6%
